Measured values from patent US20010012846A1, “Quinoline-4-carboxamide derivatives as NK-2 and NK-3 receptor antagonists” (priority 1997, published 2001).
Values joined by “and” are separate entries in the source; they are usually repeats but may differ in a detail not shown here. Identical values can stand only once. Counter-ions that a name gives are not always drawn.

Columns and labels:
[1] = biological target: T1, human neurokinin-3 receptor (Homo sapiens, UniProt P29371); assay: Binding affinity to human NK-3 receptor expressed in CHO cells (inhibition of [125I]-[Me-Phe7]-NKB or [3H]-Senktide binding); conditions: human neurokinin-3 receptor expressed in CHO cell lines; read-out: Binding affinity, Ki (nM) hNK-3-CHO
T1 construct: expressed in transfected cells; host or cells: CHO
T1 sequence (P29371 1-465): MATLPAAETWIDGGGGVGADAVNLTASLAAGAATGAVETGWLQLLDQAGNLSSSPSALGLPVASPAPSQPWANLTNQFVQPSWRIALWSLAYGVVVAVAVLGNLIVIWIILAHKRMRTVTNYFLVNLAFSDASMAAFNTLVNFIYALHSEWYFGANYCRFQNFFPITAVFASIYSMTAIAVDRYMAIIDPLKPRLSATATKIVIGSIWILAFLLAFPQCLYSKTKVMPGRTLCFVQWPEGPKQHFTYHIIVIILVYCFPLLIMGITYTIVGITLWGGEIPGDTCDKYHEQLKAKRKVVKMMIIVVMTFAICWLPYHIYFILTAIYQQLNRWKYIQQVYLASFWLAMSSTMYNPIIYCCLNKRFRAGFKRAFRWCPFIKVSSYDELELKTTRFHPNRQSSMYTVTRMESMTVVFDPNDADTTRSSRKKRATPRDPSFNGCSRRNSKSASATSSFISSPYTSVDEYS
Protocol: The activity of the compounds of the present invention, as NK3 ligands, is determined by their ability to inhibit the binding of the radiolabelled NK3 ligands, [^125I]-[Me-Phe^7]-NKB or [^3H]-Senktide, to guinea-pig and human NK3 receptors (Renzetti et al, 1991, Neuropeptide, 18, 104-114; Buell et al, 1992, FEBS, 299(1), 90-95; Chung et al, 1994, Biochem. Biophys. Res. Commun., 198(3), 967-972).
The binding assays utilized allow the determination of the concentration of the individual compound required to reduce by 50% the [^125I]-[Me-Phe^7]-NKB and [^3H]-Senktide specific binding to NK3 receptor in equilibrium conditions (IC50).
Binding assays provide for each compound tested a mean IC50 value of 2-5 separate experiments performed in duplicate or triplicate. […] The NK3-antagonist activity of the compounds of the present invention is determined by their ability to inhibit senktide-induced contraction of the guinea-pig ileum (Maggi et al, 1990, Br. J. Pharmacol., 101, 996-1000) and rabbit isolated iris sphincter muscle (Hall et al., 1991, Eur. J. Pharmacol., 199, 9-14) and human NK3 receptors-mediated Ca^++ mobilization (Mochizuki et al, 1994, J. Biol. Chem., 269, 9651-9658). Guinea-pig and rabbit in-vitro functional assays provide for each compound tested a mean KB value of 3-8 separate experiments, where KB is the concentration of the individual compound required to produce a 2-fold rightward shift in the concentration-response curve of senktide. Human receptor functional assay allows the determination of the concentration of the individual compound required to reduce by 50% (IC50 values) the Ca^++ mobilization induced by the agonist NKB. In this assay, the compounds of the present invention behave as antagonists.

[2] = biological target: T2, human neurokinin-2 receptor (Homo sapiens, UniProt P21452); assay: Binding affinity to human NK-2 receptor expressed in CHO cells (inhibition of [125I]-NKA or [3H]-NKA binding); conditions: human neurokinin-2 receptor expressed in CHO cell lines; read-out: Binding affinity, Ki (nM) hNK-2-CHO
T2 construct: expressed in transfected cells; host or cells: CHO
T2 sequence (P21452 1-398): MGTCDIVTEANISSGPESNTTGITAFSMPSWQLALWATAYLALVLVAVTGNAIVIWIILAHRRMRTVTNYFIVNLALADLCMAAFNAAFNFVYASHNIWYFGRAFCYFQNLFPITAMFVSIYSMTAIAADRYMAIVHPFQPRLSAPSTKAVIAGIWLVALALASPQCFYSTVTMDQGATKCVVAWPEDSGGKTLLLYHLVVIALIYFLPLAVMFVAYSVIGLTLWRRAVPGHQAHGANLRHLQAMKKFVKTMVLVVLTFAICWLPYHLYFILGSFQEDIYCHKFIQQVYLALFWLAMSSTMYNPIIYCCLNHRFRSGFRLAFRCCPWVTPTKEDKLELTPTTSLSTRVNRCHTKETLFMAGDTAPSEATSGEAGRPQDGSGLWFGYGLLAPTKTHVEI
Protocol: The activity of the compounds of the present invention, as NK-2 ligands, is determined by their ability to inhibit the binding of the radiolabelled NK-2 ligands, [^125I]-NKA or [^3H]-NKA, to human NK-2 receptors (Aharony et al, 1992, Neuropeptide, 23, 121-130).
The binding assays utilized allow the determination of the concentration of the individual compound required to reduce by 50% the [^125I]-NKA and [^3H]-NKA specific binding to NK2 receptor in equilibrium conditions (IC50).
Binding assays provide for each compound tested a mean IC50 value of 2-5 separate experiments performed in duplicate or triplicate. […] The NK-2-antagonist activity of the compounds of the present invention is determined by their ability to inhibit human NK-2 receptor-mediated Ca^++ mobilization (Mochizuki et al, 1994, J. Biol. Chem., 269, 9651-9658). Human receptor functional assay allows the determination of the concentration of the individual compound required to reduce by 50% (IC50 values) the Ca^++ mobilization induced by the agonist NKA. In this assay, the compounds of the present invention behave as antagonists.

## CC[C@H](NC(=O)c1c(CN2CCCCC2)c(-c2ccccc2)nc2ccccc12)c1ccccc1 (as salt: HCl) [Example 8]
other
  melting point: 140 °C (dec.)

## CC[C@H](NC(=O)c1c(CN2CCN(C)CC2)c(-c2ccccc2)nc2ccccc12)c1ccccc1 (as salt: HCl) [Example 11]
other
  melting point: 195 to 198 °C

## CC[C@H](NC(=O)c1c(CCN2CCN(c3ccccc3)CC2)c(-c2ccccc2)nc2ccccc12)c1ccccc1 (as salt: HCl) [Example 12]
other
  melting point: 206 °C (dec.)

## CC[C@H](NC(=O)c1c(CCCN2CCN(c3ccccc3)CC2)c(-c2ccccc2)nc2ccccc12)c1ccccc1 (as salt: HCl) [Example 13]
other
  melting point: 180 °C (dec.)

## CC[C@H](NC(=O)c1c(CN2CCN(C(C)C)CC2)c(-c2ccccc2)nc2ccccc12)c1ccccc1 (as salt: HCl) [Example 20]
other
  melting point: 178 to 182 °C

## CC[C@H](NC(=O)c1c(CN2CCC[C@@H]2CO)c(-c2ccccc2)nc2ccccc12)c1ccccc1 [Example 5]
[1]
  Ki: 0.9 nM
[2]
  Ki: 73.2 nM
other
  melting point: 83 °C (dec.)

## CC[C@H](NC(=O)c1c(CN(C)CCO)c(-c2ccccc2)nc2ccccc12)c1ccccc1 [Example 6]
[1]
  Ki: 1.2 nM
[2]
  Ki: 65.5 nM
other
  melting point: 167 to 170 °C

## CC[C@H](NC(=O)c1c(CN2CCCCC2)c(-c2ccccc2)nc2ccccc12)c1ccccc1 [Example 8]
[1]
  Ki: 0.9 nM
[2]
  Ki: 24.1 nM

## CC[C@H](NC(=O)c1c(CN2CCC3(CC2)OCCO3)c(-c2ccccc2)nc2ccccc12)c1ccccc1 [Example 9, (S)-N-(α-ethylbenzyl)-3-[(1,4-dioxa-8-azaspiro[4.5]decan-8-yl)methyl]-2-phenylquinoline-4-carboxamide]
[1]
  Ki: 0.8 nM
[2]
  Ki: 18.2 nM
other
  melting point: 170 to 173 °C

## CC[C@H](NC(=O)c1c(CN2CCN(C)CC2)c(-c2ccccc2)nc2ccccc12)c1ccccc1 [Example 11]
[1]
  Ki: 4 nM
[2]
  Ki: 66.8 nM

## CC[C@H](NC(=O)c1c(CCN2CCN(c3ccccc3)CC2)c(-c2ccccc2)nc2ccccc12)c1ccccc1 [Example 12]
[1]
  Ki: 1.9 nM
[2]
  Ki: 39 nM

## CC[C@H](NC(=O)c1c(CCCN2CCN(c3ccccc3)CC2)c(-c2ccccc2)nc2ccccc12)c1ccccc1 [Example 13]
[1]
  Ki: 0.3 nM
[2]
  Ki: 3.8 nM

## CC[C@H](NC(=O)c1c(CCCCN2CCN(c3ccccc3)CC2)c(-c2ccccc2)nc2ccccc12)c1ccccc1 [Example 14]
[1]
  Ki: 1.1 nM
[2]
  Ki: 22.2 nM
other
  melting point: 151 to 153 °C

## CC[C@H](NC(=O)c1c(CN2CCC(=O)CC2)c(-c2ccccc2)nc2ccccc12)c1ccccc1 [Example 17, (S)-N-(α-Ethylbenzyl)-3-[(4-oxopiperidin-1-yl)methyl]-2-phenylquinoline-4-carboxamide]
[1]
  Ki: 1.5 nM
[2]
  Ki: 42.7 nM
other
  melting point: > 95 °C

## CC[C@H](NC(=O)c1c(CN2CCC(O)CC2)c(-c2ccccc2)nc2ccccc12)c1ccccc1 [Example 18, (S)-N-(α-Ethylbenzyl)-3-[(4-hydroxypiperidin-1-yl)methyl]-2-phenylquinoline-4-carboxamide]
[1]
  Ki: 2.3 nM
[2]
  Ki: 44.6 nM
other
  melting point: 203 to 207 °C

## CC[C@H](NC(=O)c1c(CN2CCN(C(C)C)CC2)c(-c2ccccc2)nc2ccccc12)c1ccccc1 [Example 20]
[1]
  Ki: 1.8 nM
[2]
  Ki: 5.7 nM

## CC[C@H](NC(=O)c1c(CCCN2C(=O)c3ccccc3C2=O)c(-c2ccccc2)nc2ccccc12)c1ccccc1 [Example 21]
[1]
  Ki: 0.9 nM
[2]
  Ki: 6.4 nM
other
  melting point: 182 to 183 °C

## CC[C@H](NC(=O)c1c(CCN2CCN(c3cccc(C(F)(F)F)c3)CC2)c(-c2ccccc2)nc2ccccc12)c1ccccc1 [Example 22]
[1]
  Ki: 2.9 nM
[2]
  Ki: 44.9 nM
other
  melting point: 115 to 117 °C

## CC[C@H](NC(=O)c1c(CCCN2CCN(c3cccc(C(F)(F)F)c3)CC2)c(-c2ccccc2)nc2ccccc12)c1ccccc1 [Example 23]
[1]
  Ki: 1.2 nM
[2]
  Ki: 9.7 nM
other
  melting point: 102 to 105 °C

## CC[C@H](NC(=O)c1c(CCCN2CCN(c3ccc(Cl)cc3)CC2)c(-c2ccccc2)nc2ccccc12)c1ccccc1 [Example 24]
[1]
  Ki: 0.9 nM
[2]
  Ki: 3.3 nM
other
  melting point: 100 to 105 °C

## CC[C@H](NC(=O)c1c(CCCN2CCC(c3ccccc3)CC2)c(-c2ccccc2)nc2ccccc12)c1ccccc1 [Example 25]
[1]
  Ki: 0.5 nM
[2]
  Ki: 1.5 nM
other
  melting point: 75 to 80 °C

## CC[C@H](NC(=O)c1c(CN2CCN(Cc3ccccc3)CC2)c(-c2ccccc2)nc2ccccc12)c1ccccc1 [Example 26, (S)-N-(α-ethylbenzyl)-3-[(4-benzylpiperazin-1-yl)methyl]-2-phenylquinoline-4-carboxamide]
[1]
  Ki: 0.4 nM
[2]
  Ki: 1.7 nM
other
  melting point: 85 °C (dec.)

## CC[C@H](NC(=O)c1c(CCN2CCN(c3ccc(Cl)cc3)CC2)c(-c2ccccc2)nc2ccccc12)c1ccccc1 [Example 27]
[1]
  Ki: 2.8 nM
[2]
  Ki: 53.5 nM
other
  melting point: 100 to 110 °C (dec.)

## CC[C@H](NC(=O)c1c(CN2CCNCC2)c(-c2ccccc2)nc2ccccc12)c1ccccc1 [Example 28, (S)-N-(α-Ethylbenzyl)-3-[(piperazin-1-yl)methyl]-2-phenylquinoline-4-carboxamide]
other
  melting point: 94 to 98 °C and 94.5 to 98 °C

## CC[C@H](NC(=O)c1c(CCN2CCN(c3ccc(C)cc3)CC2)c(-c2ccccc2)nc2ccccc12)c1ccccc1 [Example 29]
[1]
  Ki: 2.5 nM
[2]
  Ki: 35.3 nM
other
  melting point: 93 to 96 °C

## CC[C@H](NC(=O)c1c(CCN2CCN(c3ccc(F)cc3)CC2)c(-c2ccccc2)nc2ccccc12)c1ccccc1 [Example 30]
[1]
  Ki: 3 nM
[2]
  Ki: 27.1 nM
other
  melting point: 96 to 98 °C

## CC[C@H](NC(=O)c1c(CN2CCC3(CCCC3)CC2)c(-c2ccccc2)nc2ccccc12)c1ccccc1 [Example 31]
[1]
  Ki: 3.9 nM
[2]
  Ki: 143 nM
other
  melting point: 156 to 160 °C

## CC[C@H](NC(=O)c1c(CN2CC[C@H](O)C2)c(-c2ccccc2)nc2ccccc12)c1ccccc1 [Example 32, (S)-N-(α-ethylbenzyl)-3-[(3-(S)-hydroxy)pyrrolidin-1-ylmethyl]-2-phenylquinoline-4-carboxamide]
[1]
  Ki: 3.2 nM
[2]
  Ki: 68.8 nM
other
  melting point: 90 to 95 °C

## CC[C@H](NC(=O)c1c(CN2CC[C@@H](O)C2)c(-c2ccccc2)nc2ccccc12)c1ccccc1 [Example 33]
[1]
  Ki: 2.9 nM
[2]
  Ki: 64.8 nM
other
  melting point: 100 to 105 °C

## CC[C@H](NC(=O)c1c(CCN2CCN(C(C)C)CC2)c(-c2ccccc2)nc2ccccc12)c1ccccc1 [Example 39]
[1]
  Ki: 0.8 nM
[2]
  Ki: 35.6 nM
